Results reported in US4482560A, “Carbostyril derivatives, and antihistaminic agents containing the same” (priority 1979, dated 1984).
Structures can show the parent of a compound that is named as a salt. Where two headings read alike, the source gives them in different places.

Columns and labels:
[1] = system: Male mice of ddy-strain; assay: Halothane anesthesia increasing activity; assay type: in vivo, mouse; conditions: for Halothane anesthesia increasing activity / central nervous controlling effect in words: compared with control (physiological saline solution); for Time (minutes) between introduction of anesthesia and waking (righting reflex): oral, 32 mg/kg, 1 hour before 4% Halothane for 3 minutes, male ddy mice, saline control 4.2
Method: Male mice of ddy-strain having about 20 g body weight were used. One test group consists of 10 mice. An aqueous Gummi Arabicum suspension of test compound (80 mg of a compound to be tested and 1 g of Gummi Arabicum/100 ml of physiological NaCl solution) was administered orally to each mouse at the dosage of 32 mg of test compound/kg body. One hour after the administration, each mouse was placed in gas respiration chamber (13×13×24 cm) and oxygen gas containing 4% of Halothane [2-bromo-2-chloro-1,1,1-trifluoroethane] was blown into the chamber at the velocity of 2 l/min for 3 minutes. A mouse anaesthetized was taken out from the chamber and the time between the introduction of anesthesia to waking was measured by righting reflex as the index. To mice of control group, 1% Gummi Arabicum aqueous physiological solution was orally administered at the dosage of 0.1 ml/kg body. (Reference: M. J. Turnbull and J. W. Watkins: Br. J. Pharmacol., 58, 27-35 (1976))

[2] = biological target: ileum of a guinea pig (Cavia porcellus, UniProt P31389); assay: cell-based
ileum of a guinea pig, sequence (P31389 whole entry): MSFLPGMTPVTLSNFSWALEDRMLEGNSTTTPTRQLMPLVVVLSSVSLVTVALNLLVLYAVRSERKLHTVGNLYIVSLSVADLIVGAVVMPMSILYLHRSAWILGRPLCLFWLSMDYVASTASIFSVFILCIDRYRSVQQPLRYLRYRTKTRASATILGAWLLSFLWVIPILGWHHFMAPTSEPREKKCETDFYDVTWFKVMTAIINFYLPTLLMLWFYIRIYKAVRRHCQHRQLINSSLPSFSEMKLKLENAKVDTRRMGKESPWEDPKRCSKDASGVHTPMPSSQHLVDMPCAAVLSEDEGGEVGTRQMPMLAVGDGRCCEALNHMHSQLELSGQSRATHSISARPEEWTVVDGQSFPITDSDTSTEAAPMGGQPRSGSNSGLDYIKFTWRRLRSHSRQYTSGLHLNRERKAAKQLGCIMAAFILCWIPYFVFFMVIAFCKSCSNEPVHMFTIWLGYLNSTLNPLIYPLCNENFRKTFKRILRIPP
Method: Pharmacological tests of the present compounds were conducted according to said method as follows:
A male guinea pig having 300 to 500 g body weight is killed by blood letting. An ileum having length of 15 cm being enucleated from the ileocecal region is dipped into Tyrode's solution (which is prepared from 8.0 g of NaCl, 0.2 g of KCl, 0.2 g of CaCl2, 1.0 g of glucose, 1.0 g of NaHCO3, 0.065 g of NaHPO4.2H2 O and 0.2135 g of MgCl2.6H2 O to make 1000 ml in total volume by adding water). Then the tissue of ileum is cut to a length of 2.5 to 3.0 cm and suspended in an organ bath filled with 30 ml of Tyrode's solution. The organ bath is kept a temperature of 36° C. while blowing a mixed gas consisting of 5% of CO2 and 95% of O2 into the bath. 10 Minutes after the blowing, 10^-6 M of histamine is added to the bath to examine the sensitivity of the tissue and a reaction curve (control) with respect to the dosage of histamine is obtained. After the dosage of histamine-reaction curve (control) become constant 10^-6 g/ml of a compound to be tested is added to the bath and further histamine is added 5 minutes later to obtain dosage-reaction curve. Retraction of the ileum is recorded on a pen-recorder through an isotonic transducer (TD-112S manufactured by Nihon Koden).

[3] = histamine-induced retraction of guinea pig ileum, test compound 10^-6 g/ml, 36° C., Van Rossam method
[4] = histamine-induced retraction of guinea pig ileum, test compound 10^-6 g/ml, 36° C., Van Rossam method, read-out: pA2 (converted)

Row | Molecule | Halothane anesthesia increasing activity / central nervous controlling effect in words [1] | Time (minutes) between introduction of anesthesia and waking (righting reflex) [1] | pA2 [2, 3] | Kb [2, 4] | further results
1 | 7-[4-β-Chlorophenyl)-1-piperazinylpropoxy]-carbostyril [reference compound] | different Halothane anesthesia increasing activity as compared with control | 32.7 min | – | – | –
2 | 8-(2-Propionyloxy)-5-[2-hydroxy-3-(4-phenyl-1-piperazinyl)propoxy]-3,4-dihydrocarbostyril hydrochloride [Q, reference compound] | different Halothane anesthesia increasing activity as compared with control | 8.7 min | 8.65 | – | –
3 | CC(C(=O)c1cc(Cl)c2c(c1)CCC(=O)N2)N1CCN(c2ccccc2)CC1 (stereo not drawn) [Compound N, 8-Chloro-6-[α-(4-phenyl)-1-piperazinyl)-propionyl]-3,4-dihydrocarbostyril hydrochloride, reference compound] | – | – | – | – | Kb [2]: 0.617 µM
4 | O=c1ccc2cccc(OCCCN3CCN(c4ccccc4)CC3)c2[nH]1 [F, 8-(4-Phenyl-1-piperazinylpropoxy)carbostyril, reference compound] | – | 9.5 min | 8.58 | – | –
5 | O=c1ccc2ccc(OCCCN3CCN(c4ccccc4)CC3)cc2[nH]1 [G, 7-(4-Phenyl-1-piperazinylpropoxy)carbostyril, reference compound] | – | 28.7 min | – | – | –
6 | Cc1cc(=O)[nH]c2ccc(OCCCN3CCN(c4ccccc4)CC3)cc12 [H, 4-Methyl-6-(4-phenyl-1-piperazinylpropoxy)-carbostyril, reference compound] | – | – | – | 0.000269 µM | –
7 | Cc1cc(=O)[nH]c2cc(OCCCN3CCN(Cc4ccc(Cl)cc4)CC3)ccc12 [J, reference compound] | different Halothane anesthesia increasing activity as compared with control | 8.5 min | 9.13 | – | –
8 | CC(C)(C)NCC(O)c1cc(Cl)c2c(c1)CCC(=O)N2 (stereo not drawn) [K, 8-Chloro-6-(1-hydroxy-2-tert-butylamino-ethyl)-3,4-dihydrocarbostyril monohydrochloride, reference compound] | – | – | – | 47.9 µM | –
9 | COc1ccc(CCNC(C)C(=O)c2cc(Cl)c3c(c2)CCC(=O)N3)cc1OC (stereo not drawn) [L, 8-Chloro-6-[α-(β-3,4-dimethoxyphenethyl-amino)propionyl]-3,4-dihydrocarbostyril monohydrochloride, reference compound] | – | – | – | 4.79 µM | –
10 | CC(C(O)c1cc(Cl)c2c(c1)CCC(=O)N2)N1CCN(c2ccccc2)CC1 (stereo not drawn) [M, 8-Chloro-6-[1-hydroxy-2-(4-phenyl-1-piperazinyl)propyl]-3,4-dihydrocarbostyril monohydrochloride, reference compound] | – | – | – | 6.46 µM | –
11 | COc1ccc(CCNC(C)C(O)c2cc(Cl)c3c(c2)CCC(=O)N3)cc1OC (stereo not drawn) [O, 8-Chloro-6-[1-hydroxy-2-(β-3,4-dimethoxy-phenethylamino)propyl]-3,4-dihydrocarbostyril hydrochloride, reference compound] | – | – | – | 1.48 µM | –
12 | CC(=O)Oc1ccc(OCC(O)CN2CCN(c3ccccc3Cl)CC2)c2c1NC(=O)CC2 (stereo not drawn) [P, 8-Acetyoxy-5-{2-hydroxy-3-[4-(2-chloro-phenyl)-1-piperazinyl]propoxy}-3,4-dihydrocarbostyril hydrochloride, reference compound] | different Halothane anesthesia increasing activity as compared with control | 8.9 min | – | 0.024 µM | –
13 | COc1ccc(N2CCN(CC(O)COc3ccc(OCc4ccccc4)c4c3CCC(=O)N4)CC2)cc1 (stereo not drawn) [R, Benzyloxy-5-{2-hydroxy-3-[4-(4-methoxy-phenyl)-1-piperazinyl]propoxy}-3,4-dihydrocarbostyril hydrochloride, reference compound] | – | – | 9.57 | – | –
